Assay results from patent publication EP0835604A1, “Halopropargyl compounds as marine antifouling agents” (ROHM AND HAAS COMPANY, priority 1996, dated 1998).

Tests used:
Artemia = assay: Toxicity to Artemia nauplii in ASTM sea water, 96 well plate serial dilution; type: in vivo, Artemia salina; settings: 24 Hours; highest dilution in which all of the nauplii are dead; 25 °C
Description: Tests were conducted to determine the toxicity of the marine antifouling agents of the invention to Artemia. Artemia are indicative of hard fouling organisms.
Substitute ocean water was prepared following ASTM Method D 1141-90. The water was sterilized by filtration through a 0.22 micron cellulose acetate membrane filter. San Francisco Bay Brand® Artemia salina cysts were purchased from a local aquarium supply store. The cysts were hatched in a 250 mL Erlenmeyer flask. The Artemia cysts (0.2 g) were weighed into a sterilized flask. One hundred mL of sterile ASTM sea water was added to the flask. The flask was placed on an orbital shaker set at approximately 150 rotations per minute and 28 °C. After 24 hours, the contents of the flask were poured into a separatory funnel. The egg shells were separated from the Artemia nauplii (larvae), as the shells floated to the top. The nauplii were returned to the flask for another 24 hours shaking. The inoculum was prepared by pouring the nauplii into a crystallizing dish 48 hours after the cysts were originally placed on the shaker. After the nauplii congregated, they were taken up in a sterile serological pipette and transferred into another crystallizing dish. […] The number of nauplii in 3 to 4 wells was counted under a microscope. […]
Plates were read under a low magnification microscope 24 and 48 hours after the nauplii were added to the plate. […]

[1] = test system: Amphora coffeaeformis var. perpusilla; assay: Toxicity to Amphora: growth inhibition by chlorophyll a concentration; type: cell-based; settings: 96 hours at 20 °C, % inhibition of the mean control; for EC 50: dose effective at preventing 50% growth; for EC 100: dose effective at preventing 100% growth
Description: Tests were conducted to determine the toxicity of the marine antifouling agents of the invention to Amphora. Amphora are indicative of soft fouling organisms. Amphora coffeaeformis var. perpusilla was isolated from a natural biofilm and cultured axenically in Guillard's F2 medium. A log phase culture of Amphora was diluted with the F2 medium to give a chlorophyll a concentration of 0.25 µg/mL. Chlorophyll a was measured by passing a measured volume (FV) of cell culture through a 3 µm pore, 25 mm diameter cellulose nitrate filter. The filter plus trapped algal cells was transferred to a glass tube. A measured volume (SV) of DMSO solvent was added to the glass tube. The tubes were incubated for 1.5 hours in darkness. After incubation, the absorbance of the sample was read in a spectrophotometer at 630 and 664 nm against a DMSO/filter blank. The chlorophyll a concentration can be calculated using the following equation: Chlorophylla(µg/mL) = 11.47 x Abs664 - 0.4 x Abs630 x SV/FV [formula] Ten mL of the diluted culture was pipetted into glass tubes. Ten µL of marine antifouling agent or, in the case of controls, DMF was added to each glass tube. The tubes were incubated on an illuminated orbital shaker at 20 °C for 96 hours before the chlorophyll a concentration of each tube was measured Three replicates of each treatment were used. The effects of marine antifouling agents are calculated as % inhibition of the mean control. The EC 50 is the dose effective at preventing 50% growth. The EC 100 is the dose effective at preventing 100% growth.

Row | SMILES | Artemia LC 100 (Artemia) [ppm] | EC 50 [1] [ppm] | EC 100 [1] [ppm]
1 | CCCCCCCC[N+](CC#CBr)(CCCCCCCC)CCCCCCCC.O=S(=O)([O-])c1ccccc1 [Compound 18, trioctyl-(3-bromopropargyl)ammonium benzenesulfonate] | <8 |  | 
2 | CC1(C)C(=O)N(Cc2ccccc2)C(=O)N1CC#CI [Compound 138, 1-(3-iodopropargyl)-3-benzyl-5,5-dimethylhydantoin] |  | 2.5 | 20
3 | CCCCCCCCCCCCCC[N+]1(CC#CI)CCCC1.Cc1ccc(S(=O)(=O)[O-])cc1 [Compound 36, 1-tetradecyl-1-(3-iodopropargyl)-pyrrolidinium 4-methylbenzenesulfonate] | 1 | 1.9 | 5
4 | O=c1oc2ccccc2n1CC#CI [Compound 146, 3-(3-iodopropargyl)-2-benzoxazolone] |  | 3 | 20
